# Measurements as given in patent US12496294B2, “Methods for improving exercise performance and endurance thereof” (NANJING NUTRABUILDING BIO-TECH CO., LTD., priority 2020, dated 2025).
# How the values were obtained:
# mice [1] = assay: Treadmill running exercise endurance test in mice after DHB supplementation; type: in vivo; conditions: DHB 13, 19.5 or 26 mg/kg daily for two consecutive months, vs control group
# Experimental: (§1) Prior to the experiment, all mice were acclimatized on a treadmill by running at 15% incline and at 10 m/min for two days. After the 2-day acclimatization, 40 mice were randomly divided into four groups as followings (10 for each group): Control group (normal diet supplemented with distilled water), Dihydroberberine (high) group (normal diet supplemented with dihydroberberine 26 mg/kg daily), Dihydroberberine (medium) group: (normal diet supplemented with dihydroberberine 19.5 mg/kg daily), Dihydroberberine (low) group (normal diet supplemented with dihydroberberine 13 mg/kg daily). Each group was fed on a normal diet, other than that, three experimental groups were supplemented with dihydroberberine daily for two consecutive months, while the control group was only supplemented with distilled water at the same time. Exercise endurance of the mice was evaluated by treadmill running. At the beginning of the formal experiment, mice were placed on treadmill, running at 10 m/min for 20 minutes, and then the running speed was increased by 2 m/min every 2nd minutes. End point occurs if the mouse touched the shock grid of the treadmill three times or on the treadmill for 5 consecutive seconds without attempting to reengage the treadmill. At the end point, the running distance, highest running speed, total running time of the mice were recorded^[7].
# FIGS. 1-3 show the exercise performance and endurance of mice after supplemented with DHB for two consecutive months.
# red blood cells = assay: ROS, 2,3-DPG and T-AOC in red blood cells after treadmill exhaustion test (commercial kits); type: in vivo, mice; conditions: for T-AOC level in the red blood cell: FIG. 9
# Experimental: as §1
# (§2) After the treadmill exhaustion test, blood samples were collected from the mice into heparin tubes. By centrifugation at 4500 rpm for 15 minutes, plasma was separated from the top layer of the whole blood and red blood cells were also separated from the lower layer of the blood. The levels of superoxide dismutase (SOD), catalase (CAT), and malondialdehyde (MDA) in the plasma were determined using commercially available kits.
# The reactive oxygen species (ROS), 2,3-diphosphoglycerate (2,3-DPG), and total antioxidant capacity (T-AOC) in red blood cells were also determined using commercially available kits.
# AMPK = AMPK level in red blood cells after treadmill exhaustion test; type: in vivo, mice; conditions: group supplemented with high dose of DHB (26 mg/kg daily); FIG. 10
# Experimental: as §1, with “At the beginning of the formal experiment, mice were placed on treadmill, running at 10 m/min for 20 minutes, and then the running speed was increased by 2 m/min every 2nd minutes. End point occurs if the mouse touched the shock grid of the treadmill three times or on the treadmill for 5 consecutive seconds without attempting to reengage the treadmill.” left out
# After the treadmill exhaustion test, blood samples were collected from the mice into heparin tubes. […] The levels of superoxide dismutase (SOD), catalase (CAT), and malondialdehyde (MDA) in the plasma were determined using commercially available kits. […]
# mice [2] = assay: SOD, CAT and MDA levels in plasma after treadmill exhaustion test (commercial kits); type: in vivo; conditions: for SOD level in plasma: FIG. 4; for CAT level in plasma: FIG. 5; for MDA level in plasma: FIG. 6
# Experimental: as §1, §2
# [3] = high-dose group (26 mg/kg daily), p<0.001
# [4] = groups with administration of DHB (13, 19.5, 26 mg/kg daily, two months)
structure (smiles),measurement,setting,value
"COc1ccc2c(c1OC)CN1CCc3cc4c(cc3C1=C2)OCO4 [DHB, dihydroberberine]",running distance,mice [1]; FIG. 1,enhanced endurance and better performance
same,highest running speed,mice [1]; FIG. 2,enhanced endurance and better performance
same,running time,mice [1]; FIG. 3,enhanced endurance and better performance
same,ROS level in the red blood cell,"red blood cells; groups supplemented with DHB (13, 19.5, 26 mg/kg daily, two months), FIG. 7",increased
same,"2,3-DPG level in the red blood cell","red blood cells; groups supplemented with DHB (13, 19.5, 26 mg/kg daily, two months), FIG. 8",increased
same,T-AOC level in the red blood cell,"red blood cells; groups supplemented with DHB (13, 19.5, 26 mg/kg daily, two months)",increased
same,T-AOC level in the red blood cell,red blood cells; [3],increased significantly
same,AMPK level in red blood cells,AMPK,decreased slightly
same,SOD level in plasma,"mice [2]; groups supplemented with DHB (13, 19.5, 26 mg/kg daily, two months) vs control",higher than the control group
same,CAT level in plasma,mice [2]; [4],increased
same,MDA level in plasma,mice [2]; [4],increased
same,CAT level in plasma,"mice [2]; high dose group (26 mg/kg daily), p<0.05",increased significantly
same,SOD level in plasma,"mice [2]; high-dose DHB group (26 mg/kg daily), p<0.01",increased significantly
same,MDA level in plasma,mice [2]; [3],increased significantly
same,CAT level in plasma,"mice [2]; middle dose group (19.5 mg/kg daily), p<0.05",increased significantly
